# Measurements: US10597388B2, “Pyridazinone herbicides” (FMC CORPORATION, priority 2014, dated 2020)
# Assays:
# Assay in all cases: Test D controlled growth environment herbicide test, pre- and postemergence
# Assay type in all cases: in vivo
# [1] = system: galium (catchweed bedstraw, Galium aparine)
# Excerpt: (§1) Seeds of plant species selected from bluegrass (annual bluegrass, Poa annua), blackgrass (Alopecurus myosuroides), Canada thistle (Cirsium arvense), canarygrass (Phalaris minor), chickweed (common chickweed, Stellaria media), geranium, cutleaf (cutleaf geranium, Geranium dissectum), galium (catchweed bedstraw, Galium aparine), bromegrass, downy (downy bromegrass, Bromus tectorum), field poppy (Papaver rhoeas), field violet (Viola arvensis), foxtail, green (green foxtail, Setaria viridis), deadnettle (henbit deadnettle, Lamium amplexicaule), ryegrass, Italian (Italian ryegrass, Lolium multiflorum), kochia (Kochia scoparia), lambsquarters (Chenopodium album), oilseed rape (Brassica napus), pigweed (Amaranthus retroflexus), chamomile (scentless chamomile, Matricaria inodora), Russian thistle (Salsola kali), speedwell (bird's-eye speedwell, Veronica persica), barley, spring (spring barley, Hordeum vulgare), wheat, spring (spring wheat, Triticum aestivum), buckwheat, wild (wild buckwheat, Polygonum convolvulus), mustard, wild (wild mustard, Sinapis arvensis), oat, wild (wild oat, Avena fatua), radish, wild (wild radish, Raphanus raphanistrum), windgrass (Apera spica-venti), barley, winter (winter barley, Hordeum vulgare), and wheat, winter (winter wheat, Triticum aestivum) were planted into a silt loam soil and treated preemergence with test chemicals formulated in a non-phytotoxic solvent mixture which included a surfactant.
# (§2) At the same time, these species were planted in pots containing Redi-Earth® planting medium (Scotts Company, 14111 Scottslawn Road, Marysville, Ohio 43041) comprising spaghnum peat moss, vermiculite, wetting agent and starter nutrients and treated with postemergence applications of the test chemicals formulated in the same manner. Plants ranged in height from 2 to 18 cm (1- to 4-leaf stage). Treated plants and controls were maintained in a controlled growth environment for 14 to 21 d after which time all species were compared to controls and visually evaluated. Plant response ratings, summarized in Table D, are based on a scale of 0 to 100 where 0 is no effect and 100 is complete control. A dash (-) response means no test result.
# [2] = system: deadnettle (henbit deadnettle, Lamium amplexicaule)
# Excerpt: as §1, §2
# [3] = system: pigweed (Amaranthus retroflexus)
# Excerpt: as §1, §2
# [4] = system: oilseed rape (Brassica napus)
# Excerpt: as §1, §2
# [5] = system: ryegrass, Italian (Italian ryegrass, Lolium multiflorum)
# Excerpt: as §1, §2
# [6] = system: chamomile (scentless chamomile, Matricaria inodora)
# Excerpt: as §1, §2
# [7] = system: buckwheat, wild (wild buckwheat, Polygonum convolvulus)
# Excerpt: as §1, §2
# [8] = system: blackgrass (Alopecurus myosuroides)
# Excerpt: as §1, §2
# [9] = system: foxtail, green (green foxtail, Setaria viridis)
# Excerpt: as §1, §2
# [10] = system: windgrass (Apera spica-venti)
# Excerpt: as §1, §2
# [11] = system: bromegrass, downy (downy bromegrass, Bromus tectorum)
# Excerpt: as §1, §2
# kochia (Kochia scoparia) = system: kochia (Kochia scoparia)
# Excerpt: as §1, §2
# [12] = system: speedwell (bird's-eye speedwell, Veronica persica)
# Excerpt: as §1, §2
# [13] = system: mustard, wild (wild mustard, Sinapis arvensis)
# Excerpt: as §1, §2
# [14] = Postemergence, 31 g ai/ha, scale 0 to 100 (0 no effect, 100 complete control)
# [15] = Postemergence, 125 g ai/ha, visual rating on scale 0 (no effect) to 100 (complete control), 14 to 21 d
# [16] = Postemergence, 250 g ai/ha, scale 0 to 100 (0 no effect, 100 complete control)
# [17] = postemergence, 62 g ai/ha, scale 0 to 100, 0 no effect, 100 complete control
smiles,measurement,setting,value
Cc1cc(C)c2ccccc2c1-c1c(O)c(C)nn(C)c1=O [Compound 21],Galium plant response rating,[1]; [14],100
same,"Plant response rating, Galium",[1]; [15],100
same,"Plant response rating, Galium",[1]; [16],100
same,"Plant response rating, Galium",[1]; [17],100
same,Deadnettle plant response rating,[2]; [14],90
same,"Plant response rating, Deadnettle",[2]; [15],95
same,"Plant response rating, Deadnettle",[2]; [16],100
same,"Plant response rating, Deadnettle",[2]; [17],100
same,Pigweed plant response rating,[3]; [14],80
same,"Plant response rating, Pigweed",[3]; [15],90
same,"Plant response rating, Pigweed",[3]; [16],98
same,"Plant response rating, Pigweed",[3]; [17],85
same,Oilseed Rape plant response rating,[4]; [14],80
same,"Plant response rating, Oilseed Rape",[4]; [15],100
same,"Plant response rating, Oilseed Rape",[4]; [16],100
same,"Plant response rating, Oilseed Rape",[4]; [17],100
same,"Ryegrass, Italian plant response rating",[5]; [14],80
same,"Plant response rating, Ryegrass, Italian",[5]; [15],85
same,"Plant response rating, Ryegrass, Italian",[5]; [16],80
same,"Plant response rating, Ryegrass, Italian",[5]; [17],80
same,Chamomile plant response rating,[6]; [14],90
same,"Plant response rating, Chamomile",[6]; [15],100
same,"Plant response rating, Chamomile",[6]; [16],100
same,"Plant response rating, Chamomile",[6]; [17],95
same,"Buckwheat, Wild plant response rating",[7]; [14],100
same,"Plant response rating, Buckwheat, Wild",[7]; [15],100
same,"Plant response rating, Buckwheat, Wild",[7]; [16],100
same,"Plant response rating, Buckwheat, Wild",[7]; [17],100
same,Blackgrass plant response rating,[8]; [14],80
same,"Plant response rating, Blackgrass",[8]; [15],85
same,"Plant response rating, Blackgrass",[8]; [16],90
same,"Plant response rating, Blackgrass",[8]; [17],85
same,"Foxtail, Green plant response rating",[9]; [14],70
same,"Plant response rating, Foxtail, Green",[9]; [15],85
same,"Plant response rating, Foxtail, Green",[9]; [16],95
same,"Plant response rating, Foxtail, Green",[9]; [17],80
same,Windgrass plant response rating,[10]; [14],70
same,"Plant response rating, Windgrass",[10]; [15],85
same,"Plant response rating, Windgrass",[10]; [16],85
same,"Plant response rating, Windgrass",[10]; [17],80
same,"Bromegrass, Downy plant response rating",[11]; [14],45
same,"Plant response rating, Bromegrass, Downy",[11]; [15],75
same,"Plant response rating, Bromegrass, Downy",[11]; [16],80
same,"Plant response rating, Bromegrass, Downy",[11]; [17],60
same,Kochia plant response rating,kochia (Kochia scoparia); [14],35
same,"Plant response rating, Kochia",kochia (Kochia scoparia); [15],75
same,"Plant response rating, Kochia",kochia (Kochia scoparia); [16],85
same,"Plant response rating, Kochia",kochia (Kochia scoparia); [17],45
same,Speedwell plant response rating,[12]; [14],100
same,"Plant response rating, Speedwell",[12]; [15],100
same,"Plant response rating, Speedwell",[12]; [16],100
same,"Plant response rating, Speedwell",[12]; [17],100
same,"Mustard, Wild plant response rating",[13]; [14],100
same,"Plant response rating, Mustard, Wild",[13]; [15],100
same,"Plant response rating, Mustard, Wild",[13]; [16],100
same,"Plant response rating, Mustard, Wild",[13]; [17],100
